Measured values: publication PMC5623904, “Structural investigation of nucleophosmin interaction with the tumor suppressor Fbw7γ” (Oncogenesis, 2017)

Target: T1, Nter-NPM1 (residues 16-123) (Homo sapiens, UniProt P06748)
T1 construct: inferred from pET28a NdeI/BamHI cloning and HisTrap purification) (N); made in house; host or cells: Escherichia coli BL21(DE3)
Assay: Equilibrium fluorescence titration of dansylated peptide with Nter-NPM1
Assay type: binding
Conditions: wild-type Nter-NPM1, N-terminally dansylated peptide 5 μM, protein 0 to 200/400 μM, sodium phosphate 20 mM pH 7.2, 25 °C, fluorescence ex 330 nm, triplicate, ±s.d., Ni = no interaction
Protocol: All experiments were performed at 25 °C in sodium phosphate buffer 20 mM pH 7.2, or in sodium phosphate buffer 20 mM plus 100 mM NaCl pH 7.2 (which sets ionic strength to 150 mM), using a FluoroMax-4 spectrofluorometer (Jobin Yvon, Edison, NJ, USA), equipped with a water bath apparatus. Fbw7γ and CENP-W peptides, functionalized with a dansyl (5-dimetilamminonaftalen-1-sulphonyl) group at their N terminus, were purchased from JPT (Germany). Tat peptide was synthesized employing the solid phase method following standard Fmoc strategies and labeled with dansyl fluorophore at its N terminus. Crude product was purified by RP-HPLC applying a linear gradient of 0.1% TFA CH3CN in 0.1% TFA water from 5% to 65% over 12 min using a semi-preparative 2.2 × 5 cm C18 column at a flow rate of 20 ml/min. Purity and identity were confirmed by LC–MS analysis.
Titration experiments were conducted with an excitation wavelength of 330 nm while the fluorescence emission spectra were collected in the range between 350 and 650 nm. Titrations were performed at constant peptide concentration (5 μM) and varying protein concentrations (from 0 to 200/400 μM). Titrations were performed in triplicate and data, analyzed with the Graphpad Prism software (https://www.graphpad.com/scientific-software/prism/), were reported as dissociation constant±s.d.
Equilibrium binding curves were fitted to the standard quadratic equation: […]
where F is the observed fluorescence signal, n and [A]0 are the total concentration of non-varied and varied species, respectively, and KD is the equilibrium dissociation constant. B and C are constants taking into account the total fluorescence change and fluorescence at [A]0=0, respectively, and k is a term describing the slope of the curve at high protein concentration. Whenever possible, under pseudo first-order conditions, the equation 1 was simplified to: […]

T1 sequence (P06748 16-123): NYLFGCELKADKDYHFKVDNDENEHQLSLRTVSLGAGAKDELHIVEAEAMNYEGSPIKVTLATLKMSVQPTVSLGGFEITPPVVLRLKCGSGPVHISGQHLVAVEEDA

Substance: VLSQK [Unreleted short, reference compound]
- Nter-NPM1 KD: Ni
- Nter-NPM1 KD (listed as unrelated short): No interaction
